Source: patent US9546150B2, “Substituted quinazolin-4-ones for inhibiting ubiquitin specific protease 7” (HYBRIGENICS SA, priority 2011, dated 2017)

How the values were obtained:
USP7 = USP7 (Homo sapiens, UniProt Q93009); assay: GST-Ub52-Flag HTRF deubiquitinating enzyme assay, USP7; assay type: biochemical; design: Full-length wild-type human USP7 and its catalytic mutant; His tag (pFastBac-HT vector) (N); made in house; host or cells: Spodoptera frugiperda Sf9 (or High Five) insect cells, baculovirus; settings: GST-Ub52-Flag substrate, USP7 200 pM
Sequence of USP7 (Q93009 whole entry): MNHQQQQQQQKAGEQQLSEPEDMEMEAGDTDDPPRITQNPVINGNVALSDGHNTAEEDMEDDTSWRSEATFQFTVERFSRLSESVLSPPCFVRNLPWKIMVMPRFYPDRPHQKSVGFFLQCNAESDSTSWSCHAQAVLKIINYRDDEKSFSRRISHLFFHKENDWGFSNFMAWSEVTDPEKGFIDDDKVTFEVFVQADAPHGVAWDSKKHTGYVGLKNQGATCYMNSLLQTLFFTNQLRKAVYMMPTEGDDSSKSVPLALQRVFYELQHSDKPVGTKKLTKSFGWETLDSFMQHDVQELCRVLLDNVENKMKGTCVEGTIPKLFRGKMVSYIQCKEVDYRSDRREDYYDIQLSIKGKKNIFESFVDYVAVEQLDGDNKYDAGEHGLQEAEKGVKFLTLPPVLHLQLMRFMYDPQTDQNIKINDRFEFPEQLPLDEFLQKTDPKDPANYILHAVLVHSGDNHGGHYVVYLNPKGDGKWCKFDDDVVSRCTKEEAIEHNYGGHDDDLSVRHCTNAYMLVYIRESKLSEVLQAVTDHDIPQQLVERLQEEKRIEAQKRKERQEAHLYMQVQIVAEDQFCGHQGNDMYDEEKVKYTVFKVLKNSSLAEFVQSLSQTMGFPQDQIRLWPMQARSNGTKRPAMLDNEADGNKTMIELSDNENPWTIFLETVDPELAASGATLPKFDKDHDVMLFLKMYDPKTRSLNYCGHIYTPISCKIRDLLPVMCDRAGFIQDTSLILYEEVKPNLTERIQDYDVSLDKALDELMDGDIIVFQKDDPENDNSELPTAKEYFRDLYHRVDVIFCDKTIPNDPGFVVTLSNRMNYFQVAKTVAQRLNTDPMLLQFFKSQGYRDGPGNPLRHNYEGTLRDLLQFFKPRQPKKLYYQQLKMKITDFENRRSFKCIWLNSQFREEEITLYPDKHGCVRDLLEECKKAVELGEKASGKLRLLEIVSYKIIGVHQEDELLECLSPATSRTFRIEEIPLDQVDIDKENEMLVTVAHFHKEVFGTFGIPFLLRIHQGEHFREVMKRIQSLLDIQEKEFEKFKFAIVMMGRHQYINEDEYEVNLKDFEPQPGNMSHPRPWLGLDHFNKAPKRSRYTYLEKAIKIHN
Protocol: Bacmid DNA was prepared by an alkaline lysis procedure. The integrity of the bacmid minipreps and their orientation were checked by PCR, using generic and specific primers. Sf9 insect cells were cultured in InsectXpress medium (Cambrex) at 27° C. and transfected with the corresponding bacmid, using GeneShuttle 40 (Q-BIOgen). Viruses were recovered in the supernatant 72 h after transfection. Viruses were amplified by infecting insect cells (Sf9 or High Five cells; invitrogen) in 50 ml InsectXpress medium in a 150 cm^2 cell culture flask with 500 μl of the supernatant from transfected Sf9 cells. Following the second round of amplification, infected cells were recovered by rapid SDS lysis, boiled for 5 min at 100° C., sonicated briefly and centrifuged for 20 min at 14,000 g.
Flow Through was recovered.

USP8 = molecular target: T1, USP8 (Homo sapiens, UniProt P40818); assay: GST-Ub52-Flag HTRF deubiquitinating enzyme assay, USP8
T1 sequence (P40818 1-1118): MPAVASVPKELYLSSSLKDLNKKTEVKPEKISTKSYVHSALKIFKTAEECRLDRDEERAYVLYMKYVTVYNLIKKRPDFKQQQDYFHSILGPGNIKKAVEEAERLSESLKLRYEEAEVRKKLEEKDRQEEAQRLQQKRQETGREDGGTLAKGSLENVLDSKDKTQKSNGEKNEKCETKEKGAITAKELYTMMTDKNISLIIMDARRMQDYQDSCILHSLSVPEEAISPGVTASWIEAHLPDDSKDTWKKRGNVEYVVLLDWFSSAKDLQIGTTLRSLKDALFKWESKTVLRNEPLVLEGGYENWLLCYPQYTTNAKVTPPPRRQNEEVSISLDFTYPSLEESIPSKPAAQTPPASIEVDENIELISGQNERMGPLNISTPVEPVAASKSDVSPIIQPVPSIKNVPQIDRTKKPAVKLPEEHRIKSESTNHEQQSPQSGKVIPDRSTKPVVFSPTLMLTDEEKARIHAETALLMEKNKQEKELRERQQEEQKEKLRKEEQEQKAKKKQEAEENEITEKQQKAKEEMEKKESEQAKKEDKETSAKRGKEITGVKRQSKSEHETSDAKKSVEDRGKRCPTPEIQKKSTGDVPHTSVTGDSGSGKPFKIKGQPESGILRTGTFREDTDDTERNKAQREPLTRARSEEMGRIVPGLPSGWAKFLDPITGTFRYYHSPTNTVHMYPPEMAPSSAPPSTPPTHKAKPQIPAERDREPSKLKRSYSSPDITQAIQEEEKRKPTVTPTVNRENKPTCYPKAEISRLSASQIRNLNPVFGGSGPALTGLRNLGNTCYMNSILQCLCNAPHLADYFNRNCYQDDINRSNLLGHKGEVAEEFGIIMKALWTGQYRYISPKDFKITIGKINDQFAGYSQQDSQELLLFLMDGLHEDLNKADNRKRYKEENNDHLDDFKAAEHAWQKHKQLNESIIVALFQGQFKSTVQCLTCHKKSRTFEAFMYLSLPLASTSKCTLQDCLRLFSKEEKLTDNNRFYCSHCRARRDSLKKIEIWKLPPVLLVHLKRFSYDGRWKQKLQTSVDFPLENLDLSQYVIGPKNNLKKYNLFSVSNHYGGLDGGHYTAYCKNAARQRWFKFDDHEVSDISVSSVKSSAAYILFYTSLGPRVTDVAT
Source text: The cDNA encoding USP8 was obtained by PCR amplification from placenta mRNA. USP8 cDNA was subcloned by PCR into a baculovirus expression vector (pFastBac-HT; Invitrogen). A cDNA encoding a mutated USP8 was generated by mutagenic PCR. […] The sequences were ascertained by sequencing of the entire open reading frame. Bacmids encoding USP8 were generated following DH10bac transposition. The corresponding bacmids were transfected into insect cells (Sf9). Viruses were recovered from culture supernatant and amplified twice. Insect cells (Sf9 or High Five; Invitrogen) were infected for 72 hours. […] Proteins were affinity purified on metal affinity resins (Talon Metal affinity resin; BD Biosciences). Bound materials were extensively washed in wash buffer (50 mM Sodium Phosphate pH 7.0; 300 mM NaCl; 10 mM imidazole; 0.5% Triton X-100; 10% glycerol) and eluted from the resin in 250 mM imidazole-containing wash buffer. Proteins were dialyzed in dialysis buffer (Tris HCl pH 7.6 20 mM; NaCl 200 mM; DTT 1 mM; EDTA 1 mM; 10% Glycerol).
A cDNA encoding the fusion protein between ubiquitin and the ribosomal protein L40 (ub52 or uba52 or ubiquitin-L40) was amplified from human RNA using a proprietary human placenta library. The cDNA was subcloned into a bacterial expression vector (pGEX-2T, GE Healthcare), including an additional flag tag at the carboxyl end of the encoded protein.
For production and purification of recombinant proteins, the plasmid pGEX-2T-Ub52-flag was transformed into E. coli BL21 (Stratagene), grown in LB medium supplemented with 100 mg/ml ampicillin (LB ampi) at 37° C. overnight and then diluted 1/100 in LB ampi. The cells were incubated at 37° C. until an A600=0.6-0.8 was reached. After induction with 0.1 mM isopropyl-β-D-thiogalactopyranoside (IPTG), the culture was incubated at 30° C. for 180 min.
Cells were harvested by centrifugation for 15 min at 7000×g at 4° C. Bacterial pellets were lysed in NETN (Tris HCl pH 8.0; EDTA 1 mM; NP40 0.5%; protease inhibitor cocktail, PMSF 1 mM) and briefly sonicated. Insoluble material was removed by centrifugation 30 min at 14000×g. […] Briefly, soluble fraction was incubated on Glutathione beads pre-equilibrated in NETN buffer+0.5% Milk for 120 min at 4° C. Flow Through was recovered. Beads were extensively washed: the last wash was performed in Tris HCl pH 7.6 20 mM; NaCl 100 mM; MgCl2 12 mM. Elutions were performed using 20 mM Reduced Glutathione in 50 mM Tris HCl pH 8.0, NaCl 120 mM. […] Elutions were dialysed over night at 4° C. in Tris HCl pH 7.6 20 mM; NaCl 50 mM; DTT 0.5 mM.
The use of GST-Ub52-Flag is based on the time-resolved measurement of fluorescence emitted by transfer in homogenous medium.
The assay is carried out on multiwell assay plates. The plates are analyzed on a PHERAstar fluorimeter (BMG) after an overnight incubation at 4° C.
The enzyme reaction is carried out by mixing GST-Ub52-flag solution with 5 μl of USP7 solution (200 pM final) or 5 μl of USP8 (400 pM final). This mixture is incubated for one hour at room temperature on a multiwell assay plate. […] The plate is read after an overnight incubation at 4° C. on a PHERAstar fluorimeter (BMG).
The decrease in the signal correlates with the increase in enzyme activity i.e. the cleavage of GST-Ub52-Flag substrate.
Data (mean values+/−standard deviation) were analyzed as % of control (no compound) and plotted as percentage versus the Log of the compound concentration using GraphPad (Prism).

Structure (SMILES): O=C(COc1cccc(F)c1)N1CCC(O)(Cn2cnc3ccccc3c2=O)CC1 [Example 8, 3-({1-[2-(3-fluorophenoxy)acetyl]-4-hydroxypiperidin-4-yl}methyl)-3,4-dihydroquinazolin-4-one]
- IC50 (USP7): 224 µM
- IC50 (USP8): > 200 µM
